# pIC50: −log10 of the molar value. Structures can show the parent of a compound that is named as a salt.
# Target: T1, Human thrombin (Homo sapiens, UniProt P00734)
# T1 construct: purchased Haematologic Technologies Inc
# Assay: Thrombin protease activity inhibition, chromogenic substrate S-2238
# Assay type: biochemical
# Details: 3 nM thrombin, 125 μM S-2238, 10 min pre-incubation, RT
# Outline: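 Ten-point, three-fold serial dilutions of compound tested against 3 nM enzyme at RT in Tris buffer (0.05 M, pH 7.4) with 0.015 M NaCl and 0.01% PEG-8000.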
row,SMILES,pIC50
1,"COCCN1CCC(c2cc(NCc3ccc(Cl)s3)[nH]n2)CC1 [Entry 200, N-[(5-chlorothiophen-2-yl)methyl]-3-[1-(2-methoxyethyl)piperidin-4-yl]-1H-pyrazol-5-amine]",< 4.00
2,"O=C(N1CCOCC1)N1CCC(c2cc(NCc3ccc(Cl)s3)[nH]n2)C1 (stereo not drawn) [Entry 206, N-[(5-chlorothiophen-2-yl)methyl]-3-[1-(morpholine-4-carbonyl)pyrrolidin-3-yl]-1H-pyrazol-5-amine]",< 4.00
3,"CC1(C(=O)n2nc(C3(C)CCNC3=O)cc2NCc2ccc(Cl)s2)CCOCC1 (stereo not drawn) [Entry 122, 3-(5-[(5-chlorothiophen-2-yl)methyl]amino-1-(4-methyloxane-4-carbonyl)-1H-pyrazol-3-yl)-3-methylpyrrolidin-2-one]",6.00 to 7.00
4,"Clc1ccc(CNc2cc(C3CCN(Cc4cccnc4)CC3)n[nH]2)s1 [Entry 211, N-[(5-chlorothiophen-2-yl)methyl]-3-[1-(pyridin-3-ylmethyl)piperidin-4-yl]-1H-pyrazol-5-amine]",< 4.00
5,"CS(=O)(=O)N1CCC(c2cc(NCc3ccc(Cl)s3)[nH]n2)CC1 [Entry 173, N-[(5-chlorothiophen-2-yl)methyl]-3-(1-methanesulfonylpiperidin-4-yl)-1H-pyrazol-5-amine]",< 4.00
6,"Clc1ccc(CNc2cc(C3CCN(Cc4cnco4)CC3)n[nH]2)s1 [Entry 194, N-[(5-chlorothiophen-2-yl)methyl]-3-[1-(1,3-oxazol-5-ylmethyl)piperidin-4-yl]-1H-pyrazol-5-amine]",< 4.00
7,"C=CCOC(=O)N1CCC(c2n[nH]c(NCc3ccc(Cl)s3)c2F)CC1 [Entry 269, prop-2-en-1-yl 4-(5-[(5-chlorothiophen-2-yl)methyl]amino-4-fluoro-1H-pyrazol-3-yl)piperidine-1-carboxylate]",< 4.00
8,"Clc1ccc(CNc2cc(C3CC4CCC(C3)N4)n[nH]2)s1 (stereo not drawn) [Entry 131, 3-8-azabicyclo[3.2.1]octan-3-yl-N-[(5-chlorothiophen-2-yl)methyl]-1H-pyrazol-5-amine]",< 4.00
9,"C=CCOC(=O)N1C2CCC1CC(c1cc(NCc3ccc(Cl)s3)[nH]n1)C2 (stereo not drawn) [Entry 257, prop-2-en-1-yl 3-(5-[(5-chlorothiophen-2-yl)methyl]amino-1H-pyrazol-3-yl)-8-azabicyclo[3.2.1]octane-8-carboxylate]",4.00 to 5.00
10,"Clc1ccc(CNc2cc(C3CCN(Cc4ccccn4)CC3)n[nH]2)s1 [Entry 210, N-[(5-chlorothiophen-2-yl)methyl]-3-[1-(pyridin-2-ylmethyl)piperidin-4-yl]-1H-pyrazol-5-amine]",5.00 to 6.00
11,"CC1(c2cc(NCc3ccc(Cl)s3)n(C(=O)c3ccsc3)n2)CCNC1=O (stereo not drawn) [Entry 124, 3-(5-[(5-chlorothiophen-2-yl)methyl]amino-1-(thiophene-3-carbonyl)-1H-pyrazol-3-yl)-3-methylpyrrolidin-2-one]",6.00 to 7.00
12,"O=C(C1CCCC1)n1nc(C2CCNCC2)cc1NCc1ccc(Cl)s1 [Entry 170, N-[(5-chlorothiophen-2-yl)methyl]-1-cyclopentanecarbonyl-3-(piperidin-4-yl)-1H-pyrazol-5-amine hydrochloride]",< 4.00
13,"CC(C)(C)OC(=O)N1CCCC(c2cc(NCc3ccc(Cl)s3)n(C(=O)C(C)(C)CO)n2)C1 (stereo not drawn) [Entry 283, tert-butyl 3-(5-[(5-chlorothiophen-2-yl)methyl]amino-1-(3-hydroxy-2,2-dimethylpropanoyl)-1H-pyrazol-3-yl)piperidine-1-carboxylate]",> 7.00
14,"Clc1ccc(CNc2cc(C3CCN(CC4CC4)CC3)n[nH]2)s1 [Entry 201, N-[(5-chlorothiophen-2-yl)methyl]-3-[1-(cyclopropylmethyl)piperidin-4-yl]-1H-pyrazol-5-amine]",< 4.00
15,"CS(=O)(=O)N1CCCC(c2cc(NCc3ccc(Cl)s3)[nH]n2)CC1 (stereo not drawn) [Entry 171, N-[(5-chlorothiophen-2-yl)methyl]-3-(1-methanesulfonylazepan-4-yl)-1H-pyrazol-5-amine]",< 4.00
16,"C=CCOC(=O)N1CCN(S(=O)(=O)N2CCOCC2)CC1c1cc(NCc2ccc(Cl)s2)[nH]n1 (stereo not drawn) [Entry 250, prop-2-en-1-yl 2-(5-[(5-chlorothiophen-2-yl)methyl]amino-1H-pyrazol-3-yl)-4-(morpholine-4-sulfonyl)piperazine-1-carboxylate]",< 4.00
17,"O=C(c1ccoc1)n1nc(C2CNC2)cc1NCc1ccc(Cl)s1 [Entry 128, 3-(azetidin-3-yl)-N-[(5-chlorothiophen-2-yl)methyl]-1-(furan-3-carbonyl)-1H-pyrazol-5-amine; trifluoroacetic acid]",5.00 to 6.00
18,"Clc1ccc(CNc2cc(C3CCN(Cc4ncno4)CC3)n[nH]2)s1 [Entry 192, N-[(5-chlorothiophen-2-yl)methyl]-3-[1-(1,2,4-oxadiazol-5-ylmethyl)piperidin-4-yl]-1H-pyrazol-5-amine]",< 4.00

row,SMILES,pIC50
1,"CN(C)S(=O)(=O)N1CCC(c2cc(NCc3ccc(Cl)s3)n(C(=O)C(C)(C)C)n2)CC1 [Entry 133, 4-(5-[(5-chlorothiophen-2-yl)methyl]amino-1-(2,2-dimethylpropanoyl)-1H-pyrazol-3-yl)-N,N-dimethylpiperidine-1-sulfonamide]",6.00 to 7.00
2,"COc1ccccc1C(=O)n1nc(C2CCCN(C(=O)OC(C)(C)C)C2)cc1NCc1ccc(Cl)s1 (stereo not drawn) [Entry 281, tert-butyl 3-(5-[(5-chlorothiophen-2-yl)methyl]amino-1-(2-methoxybenzoyl)-1H-pyrazol-3-yl)piperidine-1-carboxylate]",> 7.00
3,"O=S(=O)(N1CCOCC1)N1CCC(c2cc(N(Cc3ccc(Cl)s3)S(=O)(=O)N3CCOCC3)[nH]n2)CC1 [Entry 238, N-[(5-chlorothiophen-2-yl)methyl]-N-3-[1-(morpholine-4-sulfonyl)piperidin-4-yl]-1H-pyrazol-5-ylmorpholine-4-sulfonamide]",5.00 to 6.00
4,"O=C(O)CN1CCC(c2cc(NCc3ccc(Cl)s3)[nH]n2)CC1 [Entry 112, 2-[4-(5-[(5-chlorothiophen-2-yl)methyl]amino-1H-pyrazol-3-yl)piperidin-1-yl]acetic acid]",< 4.00
5,"CC1(C(=O)n2nc(C3(C)CCCNC3=O)cc2NCc2ccc(Cl)s2)CCOCC1 (stereo not drawn) [Entry 121, 3-(5-[(5-chlorothiophen-2-yl)methyl]amino-1-(4-methyloxane-4-carbonyl)-1H-pyrazol-3-yl)-3-methylpiperidin-2-one]",5.00 to 6.00
6,"C=CCOC(=O)N1CC(c2cc(NCc3ccc(Cl)s3)[nH]n2)C1 [Entry 258, prop-2-en-1-yl 3-(5-[(5-chlorothiophen-2-yl)methyl]amino-1H-pyrazol-3-yl)azetidine-1-carboxylate]",4.00 to 5.00
7,"CN(C)S(=O)(=O)N1CCC(c2cc(NCc3ccc(Cl)s3)[nH]n2)CC1 [Entry 138, 4-(5-[(5-chlorothiophen-2-yl)methyl]amino-1H-pyrazol-3-yl)-N,N-dimethylpiperidine-1-sulfonamide]",< 4.00
8,"Clc1ccc(CNc2cc(C3CCN(CCc4ccccn4)CC3)n[nH]2)s1 [Entry 224, N-[(5-chlorothiophen-2-yl)methyl]-3-1-[2-(pyridin-2-yl)ethyl]piperidin-4-yl-1H-pyrazol-5-amine]",< 4.00
9,"Cc1c(C2CCN(C(=O)OC(C)(C)C)CC2)n[nH]c1NCc1ccc(Cl)s1 [Entry 303, tert-butyl 4-(5-[(5-chlorothiophen-2-yl)methyl]amino-4-methyl-1H-pyrazol-3-yl)piperidine-1-carboxylate]",< 4.00
10,"O=C(N1CCOCC1)N1CCNC(c2cc(NCc3ccc(Cl)s3)[nH]n2)C1 (stereo not drawn) [Entry 212, N-[(5-chlorothiophen-2-yl)methyl]-3-[4-(morpholine-4-carbonyl)piperazin-2-yl]-1H-pyrazol-5-amine hydrochloride]",< 4.00
11,"COc1ccccc1C(=O)n1nc(C2(C)CCCN2)cc1NCc1ccc(Cl)s1 (stereo not drawn) [Entry 152, N-[(5-chlorothiophen-2-yl)methyl]-1-(2-methoxybenzoyl)-3-(2-methylpyrrolidin-2-yl)-1H-pyrazol-5-amine; formic acid]",6.00 to 7.00
12,"CC(C)(C)OC(=O)N1CCCC1(C)c1cc(NCc2ccc(Cl)s2)n(C(=O)c2ccsc2)n1 (stereo not drawn) [Entry 276, tert-butyl 2-(5-[(5-chlorothiophen-2-yl)methyl]amino-1-(thiophene-3-carbonyl)-1H-pyrazol-3-yl)-2-methylpyrrolidine-1-carboxylate]",< 4.00
13,"Clc1ccc(CNc2cc(C3CCCNC3)n[nH]2)s1 (stereo not drawn) [Entry 186, N-[(5-chlorothiophen-2-yl)methyl]-3-(piperidin-3-yl)-1H-pyrazol-5-amine]",5.00 to 6.00
14,"C=CCOC(=O)N1CCC(c2nn(C(=O)C(C)(C)C)c(NCc3ccc(Cl)s3)c2F)CC1 [Entry 263, prop-2-en-1-yl 4-(5-[(5-chlorothiophen-2-yl)methyl]amino-1-(2,2-dimethylpropanoyl)-4-fluoro-1H-pyrazol-3-yl)piperidine-1-carboxylate]",> 7.00
15,"CC(C)(C)OC(=O)N1CCC(c2cc(NCc3ccc(Cl)s3)n(C(=O)C(C)(C)CO)n2)CC1 [Entry 297, tert-butyl 4-(5-[(5-chlorothiophen-2-yl)methyl]amino-1-(3-hydroxy-2,2-dimethylpropanoyl)-1H-pyrazol-3-yl)piperidine-1-carboxylate]",> 7.00
16,"O=S(=O)(c1ccccc1)N1CCC(c2cc(NCc3ccc(Cl)s3)[nH]n2)CC1 [Entry 130, 3-[1-(benzenesulfonyl)piperidin-4-yl]-N-[(5-chlorothiophen-2-yl)methyl]-1H-pyrazol-5-amine]",5.00 to 6.00
17,"COc1ccccc1C(=O)n1nc(C2CCN(CC(F)(F)F)CC2)cc1NCc1ccc(Cl)s1 [Entry 160, N-[(5-chlorothiophen-2-yl)methyl]-1-(2-methoxybenzoyl)-3-[1-(2,2,2-trifluoroethyl)piperidin-4-yl]-1H-pyrazol-5-amine]",5.00 to 6.00
18,"COc1ccccc1C(=O)n1nc(C2(C)CCN(C(=O)OC(C)(C)C)CC2)cc1NCc1ccc(Cl)s1 [Entry 294, tert-butyl 4-(5-[(5-chlorothiophen-2-yl)methyl]amino-1-(2-methoxybenzoyl)-1H-pyrazol-3-yl)-4-methylpiperidine-1-carboxylate]",> 7.00
